Data taken from patent US10183939B2, “Fused bicyclic (hetero)aromatic compounds useful for the treatment of cancers” (Redx Pharma PLC, priority 2014, dated 2019).
Entries after “also recorded” stand apart in the source; their conditions may differ. Read-outs that look alike come from different tables or passages of the source.

Tests used:
B-RAF^V600E kinase = B-RAF^V600E kinase (Homo sapiens (Human), UniProt P15056, V600E); assay: LanthaScreen Eu kinase binding assay (B-RAF V600E); settings: tracer 178 competition, 5 hours
Chain of B-RAF^V600E kinase (P15056 whole entry V600E): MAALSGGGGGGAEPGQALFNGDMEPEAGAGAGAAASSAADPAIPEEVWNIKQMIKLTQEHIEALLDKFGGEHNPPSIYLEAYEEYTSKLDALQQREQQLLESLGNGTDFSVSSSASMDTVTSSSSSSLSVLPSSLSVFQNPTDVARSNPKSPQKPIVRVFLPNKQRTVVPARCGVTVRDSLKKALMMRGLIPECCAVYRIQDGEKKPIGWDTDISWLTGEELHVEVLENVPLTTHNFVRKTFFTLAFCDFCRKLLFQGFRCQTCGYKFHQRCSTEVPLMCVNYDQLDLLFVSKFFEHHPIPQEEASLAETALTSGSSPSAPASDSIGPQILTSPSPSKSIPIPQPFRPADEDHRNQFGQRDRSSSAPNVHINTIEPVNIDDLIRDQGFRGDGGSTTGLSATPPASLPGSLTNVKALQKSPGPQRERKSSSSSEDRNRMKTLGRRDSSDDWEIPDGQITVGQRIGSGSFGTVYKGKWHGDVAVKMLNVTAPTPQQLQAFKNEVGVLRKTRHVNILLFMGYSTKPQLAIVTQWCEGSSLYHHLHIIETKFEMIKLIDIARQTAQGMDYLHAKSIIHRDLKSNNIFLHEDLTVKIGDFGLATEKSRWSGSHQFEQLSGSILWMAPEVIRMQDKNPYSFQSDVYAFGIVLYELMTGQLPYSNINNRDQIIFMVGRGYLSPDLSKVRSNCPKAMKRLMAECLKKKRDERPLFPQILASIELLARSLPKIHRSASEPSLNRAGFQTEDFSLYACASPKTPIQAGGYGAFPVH
Protocol: LanthaScreen™ Eu kinase binding assay
To determine whether compounds bind to RAF kinases, they are tested in a competition binding assay. […] A Europium-labelled anti-tag antibody also binds to the kinase of interest.
(§1) Compounds at a concentration of 3 mM are serially diluted (e.g. 10 μl 90 μl of 100% dimethyl sulfoxide (DMSO)) seven times in 96-well plates for a total of 8 dilution points. Each DMSO dilution is further diluted 1:100 in kinase buffer (e.g. 5 μl into 495 μl kinase buffer) containing 50 mM HEPES pH 7.5, 10 mM MgCl2, 1 mM EGTA, 0.01% Brij-35.
(§2) The plates are incubated for 5 hours at room temperature and read on an EnVision plate reader (Perkin Elmer).
(§3) All data are analysed using the GraphPad Prism software package.

C-RAF Y340D/Y341D kinase = C-RAF Y340D/Y341D kinase (Homo sapiens (Human), UniProt P04049, Y340D/Y341D); assay: LanthaScreen Eu kinase binding assay (C-RAF); settings: tracer 178 competition, 5 hours
Chain of C-RAF Y340D/Y341D kinase (P04049 306-648 Y340D/Y341D): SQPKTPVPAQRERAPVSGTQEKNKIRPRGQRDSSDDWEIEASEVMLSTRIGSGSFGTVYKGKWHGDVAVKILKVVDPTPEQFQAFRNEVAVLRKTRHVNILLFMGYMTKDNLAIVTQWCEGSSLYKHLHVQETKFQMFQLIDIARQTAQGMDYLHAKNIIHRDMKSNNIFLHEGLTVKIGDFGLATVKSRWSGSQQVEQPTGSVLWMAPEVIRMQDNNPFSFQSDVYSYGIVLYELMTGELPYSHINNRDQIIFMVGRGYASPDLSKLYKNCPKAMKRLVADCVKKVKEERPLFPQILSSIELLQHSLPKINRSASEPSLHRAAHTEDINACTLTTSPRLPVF
Protocol: LanthaScreen™ Eu kinase binding assay
To determine whether compounds bind to RAF kinases, they are tested in a competition binding assay. The Invitrogen LanthaScreen™ Eu binding assay involves the binding of an Alexa-Fluor® 647-labelled, ATP-competitive kinase tracer to the kinase of interest. A Europium-labelled anti-tag antibody also binds to the kinase of interest. Simultaneous binding of the tracer and the antibody brings them into close proximity and upon excitation at 340 nm, triggers fluorescence resonance energy transfer (FRET) between the Europium donor fluorophore on the antibody and the Alexa Fluor® 647 acceptor on the tracer. The dual emission signal produced can be measured at 665 and 615 nm.
as §1, §2
All data are analysed using the GraphPad Prism software package. Inhibition of tracer binding to the kinase of interest is assessed by determination of IC50 value, which is defined as the concentration of compound which decreased the level of FRET signal measured at 665 nm by 50%.

[1] = system: ERK phosphorylation in A375 cells (B-RAF^V600E); assay: A375 AlphaScreen SureFire pERK1/2 cellular assay; assay type: cell-based; settings: Homo sapiens, A-375, 0.5 h, 30 minutes treatment
Protocol: On day 2, compounds at a concentration of 6 mM are serially diluted 10 μl into 90 μl of 100% dimethyl sulfoxide (DMSO) six times in 96-well plates for a total of 7 dilution points. Each dilution and a DMSO control are further diluted 1:200 (e.g. 5 μl into 995 μl serum-free growth media). The media is removed and 50 μl compound dilution or control in serum-free media is added to triplicate wells containing cells, providing 30 μM compound at the maximum concentration. The cells are treated for 30 minutes at room temperature. The treatment is then removed and the cells are incubated with lysis buffer containing phosphatase inhibitors for 10 minutes at room temperature. […] The biotinylated antibody binds to the streptavidin-coated donor beads and the phopsho-ERK1/2 antibody binds to the acceptor beads. Plates are read on an EnVision reader (Perkin Elmer) and excitation of the beads at 680 nm with a laser induces the release of singlet oxygen molecules from the donor beads that trigger energy transfer to the acceptor beads in close proximity, producing a signal that can be measured at 570 nm. Both antibodies bind to phosphorylated ERK proteins, bringing the donor and acceptor beads into close proximity.
as §3

[2] = system: C-RAF-mediated ERK activation in B-RAF^WT IPC-298 cells (NRAS^Q61L); assay: IPC-298 AlphaScreen SureFire pERK1/2 cellular assay; assay type: cell-based, human; settings: 1 hour treatment, relative to reference compound Dabrafenib
Protocol: On day 2, compounds at a concentration of 6 mM are serially diluted 5 μl into 45 μl of 100% dimethyl sulfoxide (DMSO) six times in 96-well plates for a total of 7 dilution points. […] The cells are treated for 1 hour at 37° C. in 5% CO2. The treatment is then removed and the cells are incubated with lysis buffer containing phosphatase inhibitors for 10 minutes at room temperature with gentle shaking. […] The biotinylated antibody binds to the streptavidin-coated donor beads and the phopsho-ERK1/2 antibody binds to the acceptor beads. Plates are read on an EnVision reader (Perkin Elmer) and excitation of the beads at 680 nm with a laser induces the release of singlet oxygen molecules from the donor beads that triggers energy transfer to the acceptor beads in close proximity, producing a signal that can be measured at 570 nm. Both antibodies bind to phosphorylated ERK proteins, bringing the donor and acceptor beads into close proximity.
All data are analysed using the GraphPad Prism software package. Activation of ERK phosphorylation is expressed as a percentage of activation relative to the reference compound, Dabrafenib.

[3] = system: ERK phosphorylation in WiDr cells (B-RAF^V600E); assay: WiDr AlphaScreen SureFire pERK1/2 cellular assay; assay type: cell-based; settings: Homo sapiens
Protocol: The human WiDr colorectal cell line endogenously expresses the B-RAF^V600E mutation, which leads to constitutive activation of the MAP kinase pathway and phosphorylation of ERK in the absence of ligands.
On day 2, compounds at a concentration of 6 mM are serially diluted 10 μl into 90 μl of 100% dimethyl sulfoxide (DMSO) six times in 96-well plates for a total of 7 dilution points. Each dilution and a DMSO control are further diluted 1:200 (e.g. 5 μl into 995 μl minimum essential medium+0.1% fetal bovine serum). The media is removed and 100 μl compound dilution or control in minimum essential medium+0.1% fetal bovine serum is added to triplicate wells containing cells, providing 30 μM compound at the maximum concentration. The cells are treated for 1 hour or 24 hours at 37° C. The treatment is then removed and the cells are incubated with lysis buffer containing phosphatase inhibitors for 10 minutes at room temperature. […] The biotinylated antibody binds to the streptavidin-coated donor beads and the phopsho-ERK1/2 antibody binds to the acceptor beads. Plates are read on an EnVision reader (Perkin Elmer) and excitation of the beads at 680 nm with a laser induces the release of singlet oxygen molecules from the donor beads that triggers energy transfer to the acceptor beads in close proximity, producing a signal that can be measured at 570 nm. Both antibodies bind to phosphorylated ERK proteins, bringing the donor and acceptor beads into close proximity.
as §3

[4] = IC50 category, read-out: BRAF^V600E binding affinity
[5] = IC50 category, read-out: CRAF binding affinity
[6] = read-out: A375 pERK inhibition category
[7] = read-out: BRAF^V600E binding affinity IC50
[8] = read-out: A375 pERK inhibition IC50
[9] = read-out: CRAF binding affinity IC50
[10] = 1 hr treatment, read-out: WiDr pERK inhibition category 1 hr
[11] = 24 hrs treatment, read-out: WiDr pERK inhibition category 24 hrs

O=C1CCc2c(Oc3ccc4c(c3)CC(c3nc5ccccc5[nH]3)CO4)ccnc2N1 (stereo not drawn) [Example 1, 5-[3-(1H-benzimidazol-2-yl)chroman-6-yl]oxy-3,4-dihydro-1H-1,8-naphthyridin-2-one]
IC50 (B-RAF^V600E kinase; [4]): < 4 nM | IC50 (C-RAF Y340D/Y341D kinase; [5]): < 4 nM

O=C1CCc2c(Oc3ccc4c(c3)CC(c3nc5cccc(Cl)c5[nH]3)CO4)ccnc2N1 (stereo not drawn) [Example 2, 5-[3-(7-chloro-1H-benzimidazol-2-yl)chroman-6-yl]oxy-3,4-dihydro-1H-1,8-naphthyridin-2-one]
IC50 (B-RAF^V600E kinase; [4]): 4 to 100 nM | IC50 [1, 6]: 70 to 300 nM | IC50 (C-RAF Y340D/Y341D kinase; [5]): 4 to 100 nM

O=C1CCc2c(Oc3ccc4c(c3)CC(c3nc(-c5ccccc5)c[nH]3)CO4)ccnc2N1 (stereo not drawn) [Example 3, 5-[3-(4-phenyl-1H-imidazol-2-yl)chroman-6-yl]oxy-3,4-dihydro-1H-1,8-naphthyridin-2-one]
paradoxical activation of MAPK pathway (ERK phosphorylation) [2]: reduced paradoxical activation of MAPK pathway in comparison to Dabrafenib; also recorded: reduced paradoxical activity

O=C1CCc2c(Oc3ccc4c(c3)CC(c3nc(-c5ccncc5)c[nH]3)CO4)ccnc2N1 (stereo not drawn) [Example 4, 5-[3-[4-(4-pyridyl)-1H-imidazol-2-yl]chroman-6-yl]oxy-3,4-dihydro-1H-1,8-naphthyridin-2-one]
IC50 (B-RAF^V600E kinase; [4]): < 4 nM | IC50 [1, 6]: > 300 nM | IC50 (C-RAF Y340D/Y341D kinase; [5]): < 4 nM | paradoxical activation of MAPK pathway (ERK phosphorylation) [2]: reduced paradoxical activity

CC(C)(C)c1c[nH]c(C2COc3ccc(Oc4ccnc5c4CCC(=O)N5)cc3C2)n1 (stereo not drawn) [Example 5, 5-[3-(4-tert-butyl-1H-imidazol-2-yl)chroman-6-yl]oxy-3,4-dihydro-1H-1,8-naphthyridin-2-one]
IC50 (B-RAF^V600E kinase; [4]): 4 to 100 nM | IC50 (C-RAF Y340D/Y341D kinase; [5]): < 4 nM

O=C1CCc2c(Oc3ccc4c(c3)CC(c3nc(-c5ccsc5)c[nH]3)CO4)ccnc2N1 (stereo not drawn) [Example 6, 5-[3-[4-(3-thienyl)-1H-imidazol-2-yl]chroman-6-yl]oxy-3,4-dihydro-1H-1,8-naphthyridin-2-one]
IC50 (B-RAF^V600E kinase; [4]): < 4 nM | IC50 (B-RAF^V600E kinase; [7]): 1 nM | IC50 [1, 8]: 23.4 nM | IC50 [1, 6]: < 70 nM | IC50 (C-RAF Y340D/Y341D kinase; [5]): < 4 nM | IC50 (C-RAF Y340D/Y341D kinase; [9]): 0.4 nM | paradoxical activation of MAPK pathway (ERK phosphorylation) [2]: reduced paradoxical activity

O=C1CCc2c(Oc3ccc4c(c3)CC(c3nc(-c5cccs5)c[nH]3)CO4)ccnc2N1 (stereo not drawn) [Example 7, 5-[3-[4-(2-thienyl)-1H-imidazol-2-yl]chroman-6-yl]oxy-3,4-dihydro-1H-1,8-naphthyridin-2-one]
IC50 (B-RAF^V600E kinase; [4]): < 4 nM | IC50 (B-RAF^V600E kinase; [7]): 1.1 nM | IC50 [1, 6]: < 70 nM | IC50 (C-RAF Y340D/Y341D kinase; [5]): < 4 nM | IC50 (C-RAF Y340D/Y341D kinase; [9]): 0.5 nM | paradoxical activation of MAPK pathway (ERK phosphorylation) [2]: reduced paradoxical activity

O=C1CCc2c(Oc3ccc4c(c3)CC(c3ncc(-c5ccccc5Cl)[nH]3)CO4)ccnc2N1 (stereo not drawn) [Example 8, 5-[3-[5-(2-chlorophenyl)-1H-imidazol-2-yl]chroman-6-yl]oxy-3,4-dihydro-1H-1,8-naphthyridin-2-one]
IC50 (B-RAF^V600E kinase; [4]): < 4 nM | IC50 (C-RAF Y340D/Y341D kinase; [5]): < 4 nM

O=C1CCc2c(Oc3ccc4c(c3)CC(c3ncc(-c5cccc(Cl)c5)[nH]3)CO4)ccnc2N1 (stereo not drawn) [Example 9, 5-[3-[5-(3-chlorophenyl)-1H-imidazol-2-yl]chroman-6-yl]oxy-3,4-dihydro-1H-1,8-naphthyridin-2-one]
IC50 (B-RAF^V600E kinase; [4]): < 4 nM | IC50 (C-RAF Y340D/Y341D kinase; [5]): < 4 nM

O=C1CCc2c(Oc3ccc4c(c3)CC(c3nc(-c5coc6ccccc56)c[nH]3)CO4)ccnc2N1 (stereo not drawn) [Example 10, 5-[3-[4-(benzofuran-3-yl)-1H-imidazol-2-yl]chroman-6-yl]oxy-3,4-dihydro-1H-1,8-naphthyridin-2-one]
IC50 (B-RAF^V600E kinase; [4]): < 4 nM | IC50 (C-RAF Y340D/Y341D kinase; [5]): < 4 nM

O=C1CCc2c(Oc3ccc4c(c3)CC(c3ncc(-c5cccnc5)[nH]3)CO4)ccnc2N1 (stereo not drawn) [Example 11, 5-[3-[5-(3-pyridyl)-1H-imidazol-2-yl]chroman-6-yl]oxy-3,4-dihydro-1H-1,8-naphthyridin-2-one]
IC50 (B-RAF^V600E kinase; [4]): < 4 nM | IC50 (C-RAF Y340D/Y341D kinase; [5]): < 4 nM

CS(=O)(=O)c1ccc(-c2cnc(C3COc4ccc(Oc5ccnc6c5CCC(=O)N6)cc4C3)[nH]2)cc1 (stereo not drawn) [Example 12, 5-[3-[5-(4-methylsulfonylphenyl)-1H-imidazol-2-yl]chroman-6-yl]oxy-3,4-dihydro-1H-1,8-naphthyridin-2-one]
IC50 (B-RAF^V600E kinase; [4]): > 100 nM | IC50 (C-RAF Y340D/Y341D kinase; [5]): 4 to 100 nM

O=C1CCc2c(Oc3ccc4c(c3)CC(c3ncc(-c5ccc(F)cc5)[nH]3)CO4)ccnc2N1 (stereo not drawn) [Example 13, 5-[3-[5-(4-fluorophenyl)-1H-imidazol-2-yl]chroman-6-yl]oxy-3,4-dihydro-1H-1,8-naphthyridin-2-one]
IC50 (B-RAF^V600E kinase; [4]): < 4 nM | IC50 (C-RAF Y340D/Y341D kinase; [5]): < 4 nM

O=C1CCc2c(Oc3ccc4c(c3)CC(c3ncc(-c5ccc6c(c5)OCO6)[nH]3)CO4)ccnc2N1 (stereo not drawn) [Example 14, 5-[3-[5-(1,3-benzodioxol-5-yl)-1H-imidazol-2-yl]chroman-6-yl]oxy-3,4-dihydro-1H-1,8-naphthyridin-2-one]
IC50 (B-RAF^V600E kinase; [4]): < 4 nM | IC50 (C-RAF Y340D/Y341D kinase; [5]): < 4 nM

O=C1CCc2c(Oc3ccc4c(c3)CC(c3ncc(-c5ccc6c(c5)OCCO6)[nH]3)CO4)ccnc2N1 (stereo not drawn) [Example 15, 5-[3-[5-(2,3-dihydro-1,4-benzodioxin-6-yl)-1H-imidazol-2-yl]chroman-6-yl]oxy-3,4-dihydro-1H-1,8-naphthyridin-2-one]
IC50 (B-RAF^V600E kinase; [4]): 4 to 100 nM | IC50 (C-RAF Y340D/Y341D kinase; [5]): < 4 nM

O=C1CCc2c(Oc3ccc4c(c3)C=C(c3nc(-c5ccccc5)c[nH]3)CO4)ccnc2N1 [Example 16, 5-[[3-(4-phenyl-1H-imidazol-2-yl)-2H-chromen-6-yl]oxy]-3,4-dihydro-1H-1,8-naphthyridin-2-one]
IC50 (B-RAF^V600E kinase; [4]): 4 to 100 nM | IC50 [1, 6]: > 300 nM | IC50 (C-RAF Y340D/Y341D kinase; [5]): < 4 nM

O=C1CCc2c(Oc3ccc4c(c3)CC(c3nc(-c5ccccc5)no3)CO4)ccnc2N1 (stereo not drawn) [Example 17, 5-[3-(3-phenyl-1,2,4-oxadiazol-5-yl)chroman-6-yl]oxy-3,4-dihydro-1H-1,8-naphthyridin-2-one]
IC50 (B-RAF^V600E kinase; [4]): 4 to 100 nM | IC50 (C-RAF Y340D/Y341D kinase; [5]): 4 to 100 nM

O=C1CCc2c(Oc3ccc4c(c3)CC(c3cc(-c5ccccc5)[nH]n3)CO4)ccnc2N1 (stereo not drawn) [Example 18, 5-[3-(5-phenyl-1H-pyrazol-3-yl)chroman-6-yl]oxy-3,4-dihydro-1H-1,8-naphthyridin-2-one]
IC50 (B-RAF^V600E kinase; [4]): < 4 nM | IC50 [1, 6]: > 300 nM | IC50 (C-RAF Y340D/Y341D kinase; [5]): < 4 nM | paradoxical activation of MAPK pathway (ERK phosphorylation) [2]: reduced paradoxical activity

O=C1CCc2c(Oc3ccc4c(c3)O[C@@H](c3nc(-c5ccccc5)c[nH]3)CO4)ccnc2N1 [Example 19, 5-[[(3S)-3-(4-phenyl-1H-imidazol-2-yl)-2,3-dihydro-1,4-benzodioxin-6-yl]oxy]-3,4-dihydro-1H-1,8-naphthyridin-2-one]
IC50 (B-RAF^V600E kinase; [4]): < 4 nM | IC50 [3, 10]: 70 to 300 nM | IC50 [3, 11]: > 300 nM | IC50 [1, 8]: 155 nM | IC50 [1, 6]: 70 to 300 nM | IC50 (C-RAF Y340D/Y341D kinase; [5]): < 4 nM | paradoxical activation of MAPK pathway (ERK phosphorylation) [2]: reduced paradoxical activity

O=C1CCc2c(Oc3ccc4c(c3)O[C@H](c3nc(-c5ccccc5)c[nH]3)CO4)ccnc2N1 [Example 20, 5-[[(3R)-3-(4-phenyl-1H-imidazol-2-yl)-2,3-dihydro-1,4-benzodioxin-6-yl]oxy]-3,4-dihydro-1H-1,8-naphthyridin-2-one]
IC50 (B-RAF^V600E kinase; [4]): < 4 nM | IC50 [3, 10]: 70 to 300 nM | IC50 [3, 11]: > 300 nM | IC50 [1, 8]: 282 nM | IC50 [1, 6]: 70 to 300 nM | IC50 (C-RAF Y340D/Y341D kinase; [5]): < 4 nM | paradoxical activation of MAPK pathway (ERK phosphorylation) [2]: reduced paradoxical activity

Cc1cc(Oc2ccc3c(c2)CC(c2ncc(-c4ccccc4)[nH]2)CO3)ccn1 (stereo not drawn) [Example 21, 2-Methyl-4-[3-(5-phenyl-1H-imidazol-2-yl)chroman-6-yl]oxy-pyridine]
IC50 (B-RAF^V600E kinase; [4]): 4 to 100 nM | IC50 (C-RAF Y340D/Y341D kinase; [5]): 4 to 100 nM
